Earlier results in patent publication US20050143344A1, “Methods and compositions using immunomodulatory compounds for the treatment and management of central nervous system disorders or diseases” (priority 2003, published 2005).

Key:
[1] = for conversion in acetone and other anhydrous systems: acetone / anhydrous solvent systems
nigrostriatal neurons = details: lentiviral vector delivery

Molecule: Nc1cccc2c1CN(C1CCC(=O)NC1=O)C2=O (stereo not drawn) [Form B, 3-(4-amino-1-oxo-1,3 dihydro-isoindol-2-yl)-piperidene-2,6-dione]
- conversion upon heating ([1]; 175° C. for about five minutes): can convert to Form F
- conversion in acetone and other anhydrous systems [1]: converts to other forms
- stability / conversion in aqueous solvent systems ([1]; aqueous solvent systems): converts to Form E

Molecule: Nc1cccc2c1CN(C1CCC(=O)NC1=O)C2=O (stereo not drawn) [Form C, 3-(4-amino-1-oxo-1,3 dihydro-isoindol-2-yl)-piperidene-2,6-dione]
- conversion at higher relative humidities [1]: can convert to Form B

Molecule: Nc1cccc2c1CN(C1CCC(=O)NC1=O)C2=O (stereo not drawn) [Form D, 3-(4-amino-1-oxo-1,3 dihydro-isoindol-2-yl)-piperidene-2,6-dione]
- conversion at higher relative humidities [1]: will typically convert to Form B

Molecule: Nc1cccc2c1CN(C1CCC(=O)NC1=O)C2=O (stereo not drawn) [Form E, 3-(4-amino-1-oxo-1,3 dihydro-isoindol-2-yl)-piperidene-2,6-dione]
- conversion in THF solvent system ([1]; THF solvent system): to Form G
- conversion upon heating (desolvation) ([1]; about 125° C. for about five minutes): can convert to Form B
- conversion in acetone and other anhydrous systems [1]: can convert to Form C

B1: GDNF: glial cell line derived neurotrophic factor, delivered by lentiviral vectors to striatum and SN of rhesus monkeys (protein, UniProt P39905 78-211, looked up)
Glial cell line-derived …: SPDKQMAVLPRRERNRQAAAANPENSRGKGRRGQRGKNRGCVLTAIHLNVTDLGLGYETKEELIFRYCSGSCDAAETTYDKILKNLSRNRRLVSDKVGQACCRPIAFDDDLSFLDDNLVYHILRKHSAKRCGCI
modifications: lentiviral vector delivery
notes: glial cell line derived neurotrophic factor, delivered by lentiviral vectors to striatum and SN of rhesus monkeys
- motor deficits (nigrostriatal neurons; MPTP treated monkeys): reversed
- dopaminergic function (nigrostriatal neurons; aged monkeys): augmented
- functional deficits (nigrostriatal neurons; monkeys treated with MPTP): reversed
- nigrostriatal degeneration (nigrostriatal neurons; monkeys treated with MPTP): prevented
